# Data from US9956187B2 (priority 2014, dated 2018).
# Counter-ions that a name gives are not always drawn.
# Legend:
# [1] = system: chronic constriction injury (CCI) rats; experiment: Tactile allodynia, paw withdrawal threshold in CCI model; type: in vivo, rat; conditions: 3 mg/kg IP daily, days 1-10 after CCI, vs NS group, P<0.05
# Description: CCI procedures on the sciatic nerve of male SD rats were performed as previously described. Briefly, after rats were anesthetized by i.p. injection of sodium pentobarbital (40 mg/kg), the right sciatic nerve of the mid-thigh level was exposed. Chromic gut 4-0 was loosely tied around the nerve for 4 ligatures with about 1 mm between knots. The ligation was performed to just barely reduce the diameter of sciatic nerve. […] In the sham group, the sciatic nerve was exposed without ligation. The incisions of rats were closed in layers. After recovery from anesthesia, rats were housed individually in the clear plastic cages with soft bedding covered with 3-6 cm of sawdust.
# Same volume of normal saline (2 ml) was injected in the other two groups at the same time.
# The paw withdrawal threshold (PWT) was used to evaluate mechanical allodynia for nociceptive response with Von Frey filaments. The rats were placed in transparent plexiglass cage with a wire mesh floor. After acclimating to their environments for 30 minutes, each filament was applied perpendicularly to the plantar surface of the right hind paw. The end point was determined as paw withdrawal accompanied by biting, head turning and/or licking. The force (in gram, g) needed for this reaction was recorded. […]
# delta opioid receptor = target: T1, delta opioid receptor (Homo sapiens, UniProt P41143); experiment: Secondary radioligand binding assay (affinity); conditions: mean±SE; read-out: Ki DOR
# T1 construct: expressed in transfected cells
# T1 sequence (P41143 whole entry): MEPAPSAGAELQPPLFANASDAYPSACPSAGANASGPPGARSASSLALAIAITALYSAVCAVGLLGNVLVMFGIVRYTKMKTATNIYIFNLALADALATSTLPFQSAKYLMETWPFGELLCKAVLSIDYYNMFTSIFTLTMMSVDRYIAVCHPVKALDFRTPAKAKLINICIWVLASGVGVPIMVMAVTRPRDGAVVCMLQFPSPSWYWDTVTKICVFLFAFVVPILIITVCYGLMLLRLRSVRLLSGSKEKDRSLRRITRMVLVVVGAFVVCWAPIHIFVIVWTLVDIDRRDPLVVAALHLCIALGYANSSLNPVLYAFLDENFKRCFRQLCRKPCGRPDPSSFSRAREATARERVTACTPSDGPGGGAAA
# Description: (§1) The secondary binding assay was performed only when the inhibition in the primary screen was over 50%. A secondary binding assay was utilized to determine the binding affinity for the identified receptor.
# (§2) 50 μL of a crude membrane fraction of cells expressing the respective receptors were applied to each well. Reaction incubation, harvesting and radioactivity measurement from the primary assay were repeated. Affinity is expressed as pKi (−log Ki).
# [2] = target: T2, serotonin transporter (SERT) (Homo sapiens, UniProt P31645); experiment: Secondary radioligand binding assay (affinity)
# T2 construct: expressed in transfected cells
# T2 sequence (P31645 whole entry): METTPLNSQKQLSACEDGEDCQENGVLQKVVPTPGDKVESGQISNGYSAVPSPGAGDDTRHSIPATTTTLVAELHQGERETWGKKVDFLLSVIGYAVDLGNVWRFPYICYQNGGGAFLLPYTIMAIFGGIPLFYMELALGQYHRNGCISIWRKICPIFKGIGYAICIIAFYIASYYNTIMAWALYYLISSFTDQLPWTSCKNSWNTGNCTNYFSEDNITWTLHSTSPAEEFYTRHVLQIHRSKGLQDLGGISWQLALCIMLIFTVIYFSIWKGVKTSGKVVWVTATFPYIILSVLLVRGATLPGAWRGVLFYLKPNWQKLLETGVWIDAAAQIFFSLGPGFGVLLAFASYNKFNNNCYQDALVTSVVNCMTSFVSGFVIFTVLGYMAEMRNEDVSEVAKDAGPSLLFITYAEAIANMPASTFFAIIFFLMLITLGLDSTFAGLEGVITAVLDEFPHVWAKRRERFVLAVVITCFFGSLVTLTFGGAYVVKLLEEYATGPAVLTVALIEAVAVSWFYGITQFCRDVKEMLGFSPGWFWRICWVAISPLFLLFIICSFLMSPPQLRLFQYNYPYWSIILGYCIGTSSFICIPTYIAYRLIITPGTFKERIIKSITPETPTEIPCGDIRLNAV
# Description: as §1, §2
# [3] = target: T3, norepinephrine transporter (NET) (Homo sapiens, UniProt P23975); experiment: Secondary radioligand binding assay (affinity); conditions: mean±SE
# T3 construct: expressed in transfected cells
# T3 sequence (P23975 whole entry): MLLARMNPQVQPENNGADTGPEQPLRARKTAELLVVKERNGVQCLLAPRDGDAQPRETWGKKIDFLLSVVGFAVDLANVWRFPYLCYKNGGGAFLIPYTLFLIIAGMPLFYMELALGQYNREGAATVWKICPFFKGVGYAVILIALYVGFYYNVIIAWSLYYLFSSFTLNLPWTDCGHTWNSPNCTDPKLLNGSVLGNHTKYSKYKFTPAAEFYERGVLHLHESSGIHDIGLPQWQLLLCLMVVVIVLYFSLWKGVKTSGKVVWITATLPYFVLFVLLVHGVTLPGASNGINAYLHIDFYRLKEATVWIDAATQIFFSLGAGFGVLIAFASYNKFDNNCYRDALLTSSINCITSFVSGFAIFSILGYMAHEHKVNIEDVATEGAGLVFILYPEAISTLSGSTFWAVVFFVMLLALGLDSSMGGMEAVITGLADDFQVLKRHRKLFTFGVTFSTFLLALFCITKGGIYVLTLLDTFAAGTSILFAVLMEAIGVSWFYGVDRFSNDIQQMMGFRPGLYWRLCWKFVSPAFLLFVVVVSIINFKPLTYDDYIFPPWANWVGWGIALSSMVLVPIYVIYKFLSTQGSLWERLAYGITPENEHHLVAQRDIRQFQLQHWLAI
# Description: as §1, §2
# GABAA = experiment: Primary radioligand binding screen; parameters: species or system human; conditions: dezocine 10 μM
# Description: (§3) Evidence for interaction was based on the inhibition of the reference ligand-binding signal. […] Briefly, 50 μL aliquots of radioactive ligand (5 nM) were added to wells of a 96-well plate, which contained 25 μL of the reference or test ligands. We employed transfected cell lines expressing mainly human (unless otherwise specified) recombinant receptors, monoamine transporters, or ion channels for crude membrane preparation. Detailed information about our membrane preparation is well known in the art and can be obtained from publicly available protocol online. Crude membrane fractions containing the receptors were resuspended in standard binding buffer and 50 μL aliquots added to each well. The reactions were incubated at room temperature for 1.5 hours to allow for radioligand binding equilibration. Bound radioactivity was harvested by rapid filtration through a 0.3% polyethyleneimine-treated, 96-well filter mats using a 96-well Filtermate harvester. The dried filters were treated with melted scintillant and a Microbeta scintillation counter was utilized to measure the radioactivity retained on the filter.
# BZP Rat Brain Site = conditions: primary binding, dezocine 10 μM
# Description: as §3
smiles,measurement,setting,value
"C[C@@]12CCCCC[C@@H](Cc3ccc(O)cc31)[C@@H]2N [Dezocine, (−)-13β-amino-5,6,7,8,9,10,11,12-octahydro-5α-methyl-5,11-methanobenxocyclodecen-31-ol, hydrobromide]",paw withdrawal threshold (PWT),[1],increased markedly
same,Ki,delta opioid receptor,0.527 ± 0.07 µM
same,Ki,[2]; FIG. 12,0.111 µM
same,pKi SERT,[2]; mean±SE,6.96±0.08
same,pKi NET,[3],6.00±0.10
same,% inhibition,GABAA,−10.1%
same,% inhibition,BZP Rat Brain Site,11.5%
